Results reported in patent US6946458B2, “N-thiolated beta-lactams: novel antibacterial agents for methicillin-resistant Staphylococcus aureus” (University of South Florida, priority 1999, dated 2005).

Key:
Format in all cases: cell-based, Staphylococcus aureus
[1] = system: Staphylococcus strains including MRSA; test: antibacterial activity screening, results stated in words
Description: However, the N-alkylthio substituent is required, since reduction to the N—H analogue completely destroys the biological activity. […]
(§1) Of particular interest is the ability of these compounds to retain their effectiveness against penicillin-resistant strains of Staphylococcus aureus, a dangerous hospital-borne pathogen which is becoming difficult to treat with conventional antibiotic therapy. The lactams were screened for antibacterial activity by disk diffusion on agar plates, and the resulting zones of bacterial growth inhibition measured (see Table 3; each lactam is designated by Figure number).
With the lactam of FIG. 6A serving as a lead structure, other C4-unsaturated derivatives (FIGS. 6B-6E) and C4-saturated analogues (FIGS. 6F-6H), were examined all of which also have activity against Staphylococcus strains including MRSA.
(§2) Scheme I summarizes the synthesis of ester compounds 4. 4-Carboxy benzaldehyde (1) is coupled with the appropriate alcohol using DCC/DMAP, followed by reaction with p-anisidine, to give imines 2. Staudinger coupling of methoxyacetyl chloride with imine 2 gives N-aryl protected β-lactam 3. N-Dearylation of β-lactam 3 with ceric ammonium nitrate and methylthiolation with N-(methylthio)phthalimide affords N-methylthio β-lactams 4. These compounds are tested for antibacterial activity by the Kirby-Bauer method of disc diffusion on agar plates. [drawing 7]

MRSA USF657 = test: Kirby-Bauer agar disk diffusion; design: Kirby-Bauer Disc Diffusion Test Results: unit not given here; details: for The Zone of Inhibition: Table 6; for Kirby-Bauer Disc Diffusion Test Results: Table 5, beta-lactamase producing strain
Experimental: (§3) In this study, a selection of N-methylthio-substituted β-lactams are examined for antimicrobial activity by the Kirby-Bauer disk diffusion method on agar plates. A variety of common Gram-positive and Gram-negative bacteria are tested, including clinical isolates of methicillin-resistant Staphylococcus aureus (MRSA).
(§4) Compound susceptibility measurements are obtained from agar disk diffusion experiments using 6-mm air-dried disks impregnated with 20 μg of the test compound. The values correspond to the average diameters in mm (triplicate experiments) for the zone of growth inhibition observed after 24 h. Staphylococcus aureus (ATCC 25923) and β-lactamase-producing strains of methicillin-resistant Staphylococcus aureus (labeled as MRSA USF652-659) are obtained from Lakeland Regional Medical Center, Lakeland, Fla. Staphylococcus epidermidis, Staphylococcus simulans, Staphylococcus simulans, and Microcossus luteus are clinical isolates from University of South Florida Medical Clinic. Nieserria gonnorhoeae (β-lactamase positive) is obtained from the Tampa Branch State Laboratory. PenG is penicillin G (potassium salt). Table 1 provides the zones of growth inhibition that are observed after 24 hours using the lactams of FIGS. 1A-1I (designated A-I, respectively).
as §1
(§5) Table 3: Growth inhibition zones obtained from agar disk diffusion experiments using 6-mm air-dried disks impregnated with 20 μg of the test compound. The values correspond to the average diameters in mm for the zone of growth inhibition observed after 24 hours. Staphylococcus aureus and β-lactamase-producing strains of methicillin-resistant Staphylococcus aureus (labeled MRSA USF652-659) are obtained from a clinical testing laboratory at Lakeland Regional Medical Center, Lakeland, Fla.
(§6) Those compounds were tested for bioactivity using the Kirby-Bauer test on agar plates.
(§7) Biological activity is enhanced against β-lactamase producing strains of methicillin-resistant Staphylococcus aureus (MRSA). With the lactam shown in FIG. 11A serving as a lead structure, a series of other C-4 substituted derivatives (FIGS. 11B-11I) were investigated herein. Table 5 lists microbiological data for β-lactams from Kirby-Bauer Disc Diffusion Test Results (with each lactam identified by Figure number).
as §2

MRSA USF658 = test: Kirby-Bauer agar disk diffusion; design: Kirby-Bauer Disc Diffusion Test Results: unit not given here; details: for The Zone of Inhibition: Table 6; for Kirby-Bauer Disc Diffusion Test Results: Table 5, beta-lactamase producing strain
Experimental: as §3, §4, §1, §5, §6, §7, §2

MRSA USF659 = test: Kirby-Bauer agar disk diffusion; design: Kirby-Bauer Disc Diffusion Test Results: unit not given here; details: for The Zone of Inhibition: Table 6; for Kirby-Bauer Disc Diffusion Test Results: Table 5, beta-lactamase producing strain
Experimental: as §3, §4, §1, §5, §6, §7, §2

MRSA USF656 = test: Kirby-Bauer agar disk diffusion; design: Kirby-Bauer Disc Diffusion Test Results: unit not given here; details: for The Zone of Inhibition: Table 6; for Kirby-Bauer Disc Diffusion Test Results: Table 5, beta-lactamase producing strain
Experimental: as §3, §4, §1, §5, §6, §7, §2

MRSA USF654 = test: Kirby-Bauer agar disk diffusion; design: Kirby-Bauer Disc Diffusion Test Results: unit not given here; details: for The Zone of Inhibition: Table 6; for Kirby-Bauer Disc Diffusion Test Results: Table 5, beta-lactamase producing strain
Experimental: as §3, §4, §1, §5, §6, §7, §2

MRSA USF655 = test: Kirby-Bauer agar disk diffusion; design: Kirby-Bauer Disc Diffusion Test Results: unit not given here; details: for The Zone of Inhibition: Table 6; for Kirby-Bauer Disc Diffusion Test Results: Table 5
Experimental: as §3, §4, §1, §5, §6, §7, §2

MRSA USF652 = test: Kirby-Bauer agar disk diffusion; design: Kirby-Bauer Disc Diffusion Test Results: unit not given here; details: for The Zone of Inhibition: Table 6; for Kirby-Bauer Disc Diffusion Test Results: Table 5, beta-lactamase producing strain
Experimental: as §3, §4, §1, §5, §6, §7, §2

MRSA USF653 = test: Kirby-Bauer agar disk diffusion; design: Kirby-Bauer Disc Diffusion Test Results: unit not given here; details: for The Zone of Inhibition: Table 6; for Kirby-Bauer Disc Diffusion Test Results: Table 5, beta-lactamase producing strain
Experimental: as §3, §4, §1, §5, §6, §7, §2

Staph aureus 525 = test: Kirby-Bauer agar disk diffusion; details: for Kirby-Bauer Disc Diffusion Test Results: Table 5
[2] = Example 6, MRSA strains of Table 6

Row | Structure (SMILES) | antibacterial activity, in words ([1]; Example 3 SAR) | Kirby-Bauer Disc Diffusion Test Results (MRSA USF657) | Kirby-Bauer Disc Diffusion Test Results (MRSA USF658) | Kirby-Bauer Disc Diffusion Test Results (MRSA USF659) | Kirby-Bauer Disc Diffusion Test Results (MRSA USF656) | Kirby-Bauer Disc Diffusion Test Results (MRSA USF654) | Kirby-Bauer Disc Diffusion Test Results (MRSA USF655) | Kirby-Bauer Disc Diffusion Test Results (MRSA USF652) | Kirby-Bauer Disc Diffusion Test Results (MRSA USF653) | Kirby-Bauer Disc Diffusion Test Results (Staph aureus 525) | also measured
1 | COC1C(=O)N(SC)C1C(C#Cc1ccccc1)OC(C)=O (mixture of isomers) [FIG. 6I] | devoid of activity |  |  |  |  |  |  |  |  |  | 
2 | COC(=O)c1ccc(C2C(OC)C(=O)N2SC)cc1 (racemic) [4a] |  |  |  |  |  |  |  |  |  |  | The Zone of Inhibition (MRSA USF657; 20 μg disk loading): 12 mm; The Zone of Inhibition (MRSA USF658; 20 μg disk loading): 9 mm; The Zone of Inhibition (MRSA USF659; 20 μg disk loading): 13 mm; The Zone of Inhibition (MRSA USF656; 20 μg disk loading): 11 mm; The Zone of Inhibition (MRSA USF654; 20 μg disk loading): 8 mm; The Zone of Inhibition (MRSA USF655; 20 μg disk loading): 14 mm; The Zone of Inhibition (MRSA USF652; 20 μg disk loading): 12 mm; The Zone of Inhibition (MRSA USF653; 20 μg disk loading): 14 mm; antibacterial activity, in words [1, 2]: about similar activity
3 | CCOC(=O)c1ccc(C2C(OC)C(=O)N2SC)cc1 (racemic) [4b] |  |  |  |  |  |  |  |  |  |  | The Zone of Inhibition (MRSA USF657; 20 μg disk loading): 14 mm; The Zone of Inhibition (MRSA USF658; 20 μg disk loading): 11 mm; The Zone of Inhibition (MRSA USF659; 20 μg disk loading): 13 mm; The Zone of Inhibition (MRSA USF656; 20 μg disk loading): 11 mm; The Zone of Inhibition (MRSA USF654; 20 μg disk loading): 9 mm; The Zone of Inhibition (MRSA USF655; 20 μg disk loading): 12 mm; The Zone of Inhibition (MRSA USF652; 20 μg disk loading): 17 mm; The Zone of Inhibition (MRSA USF653; 20 μg disk loading): 14 mm; antibacterial activity, in words [1, 2]: about similar activity
4 | CCCCCOC(=O)c1ccc(C2C(OC)C(=O)N2SC)cc1 (racemic) [4c] |  |  |  |  |  |  |  |  |  |  | The Zone of Inhibition (MRSA USF657; 20 μg disk loading): 14 mm; The Zone of Inhibition (MRSA USF658; 20 μg disk loading): 12 mm; The Zone of Inhibition (MRSA USF659; 20 μg disk loading): 12 mm; The Zone of Inhibition (MRSA USF656; 20 μg disk loading): 14 mm; The Zone of Inhibition (MRSA USF654; 20 μg disk loading): 11 mm; The Zone of Inhibition (MRSA USF655; 20 μg disk loading): 13 mm; The Zone of Inhibition (MRSA USF652; 20 μg disk loading): 17 mm; The Zone of Inhibition (MRSA USF653; 20 μg disk loading): 13 mm; antibacterial activity, in words [1, 2]: about similar activity
5 | CCCCCCCCCCOC(=O)c1ccc(C2C(OC)C(=O)N2SC)cc1 (racemic) [4e] |  |  |  |  |  |  |  |  |  |  | The Zone of Inhibition (MRSA USF657; 20 μg disk loading): 0 mm; The Zone of Inhibition (MRSA USF658; 20 μg disk loading): 0 mm; The Zone of Inhibition (MRSA USF659; 20 μg disk loading): 0 mm; The Zone of Inhibition (MRSA USF656; 20 μg disk loading): 0 mm; The Zone of Inhibition (MRSA USF654; 20 μg disk loading): 0 mm; The Zone of Inhibition (MRSA USF655; 20 μg disk loading): 0 mm; The Zone of Inhibition (MRSA USF652; 20 μg disk loading): 0 mm; The Zone of Inhibition (MRSA USF653; 20 μg disk loading): 0 mm; antibacterial activity, in words [1, 2]: no activity
6 | COC1C(=O)N(SC)C1C#Cc1ccccc1 (racemic) [FIG. 6A] | inhibits the in vitro growth |  |  |  |  |  |  |  |  |  | 
7 | COC1C(=O)N(SC)C1c1ccccc1 (racemic) [FIG. 6J] | highly active |  |  |  |  |  |  |  |  |  | 
8 | COC1C(=O)N(SC)C1c1ccccc1Cl (racemic) [FIG. 7A] | most active analogue |  |  |  |  |  |  |  |  |  | 
9 | COC(=O)c1ccc(C2C(OC)C(=O)N2SC)cc1 (racemic) [FIG. 7J] | showing antibacterial activity |  |  |  |  |  |  |  |  |  | 
10 | CCCCCOC(=O)c1ccc(C2C(OC)C(=O)N2SC)cc1 (racemic) [FIG. 8C] | activity is maintained |  |  |  |  |  |  |  |  |  | 
11 | CCCCCCCOC(=O)c1ccc(C2C(OC)C(=O)N2SC)cc1 (racemic) [FIG. 8D] | about half the activity of the pentyl analogues |  |  |  |  |  |  |  |  |  | 
12 | CCCCCCCCCCOC(=O)c1ccc(C2C(OC)C(=O)N2SC)cc1 (racemic) [FIG. 8E] | totally devoid of activity |  |  |  |  |  |  |  |  |  | 
13 | COC1C(=O)N(SC)C1C#Cc1ccccc1 (racemic) [FIG. 11A] |  | 28 | 27 | 24 | 30 | 27 | 27 | 29 | 29 | 27 | 
14 | COC1C(=O)N(SC)C1c1ccccc1 (racemic) [FIG. 11B] |  | 28 | 27 | 24 | 28 | 26 | 26 | 30 | 30 | 25 | 
15 | COC1C(=O)N(SC)C1c1cccc([N+](=O)[O-])c1 (racemic) [FIG. 11C] |  | 18 | 17 | 11 | 18 | 16 | 14 | 17 | 22 | 15 | 
16 | COC1C(=O)N(SC)C1c1ccc(C#N)cc1 (racemic) [FIG. 11D] |  | 10 | 12 | 12 | 13 | 0 | 12 | 14 | 16 | 14 | 
17 | COC1C(=O)N(SC)C1c1cccs1 (racemic) [FIG. 11E] |  | 26 | 26 | 24 | 28 | 27 | 29 | 28 | 28 | 27 | 
18 | COC1C(=O)N(SC)C1c1cccc(Cl)c1 (racemic) [FIG. 11G] |  | 25 | 22 | 15 | 26 | 21 | 23 | 26 | 28 | 24 | 
19 | COC1C(=O)N(SC)C1c1ccc(Cl)cc1 (racemic) [FIG. 11H] |  | 22 | 20 | 18 | 22 | 23 | 23 | 24 | 28 | 24 | 
20 | COC1C(=O)N(SC)C1c1c(Cl)cccc1Cl (racemic) [FIG. 11I] |  | 20 | 20 | 17 | 22 | 21 | 20 | 24 | 26 | 24 | 
21 | COC1C(=O)N(SC)C1c1ccccc1Cl (racemic) [Methyl-thio] |  |  |  |  |  |  |  |  |  |  | Zones of Inhibition (MRSA USF657; Table 4, 20 μg disk loading): 27 mm; Zones of Inhibition (MRSA USF658; Table 4, 20 μg disk loading): 26 mm; Zones of Inhibition (MRSA USF659; Table 4, 20 μg disk loading): 23 mm; Zones of Inhibition (MRSA USF656; Table 4, 20 μg disk loading): 28 mm; Zones of Inhibition (MRSA USF654; Table 4, 20 μg disk loading): 26 mm; Zones of Inhibition (MRSA USF655; Table 4, 20 μg disk loading): 26 mm; Zones of Inhibition (MRSA USF652; Table 4, 20 μg disk loading): 30 mm; Zones of Inhibition (MRSA USF653; Table 4, 20 μg disk loading): 29 mm; Zones of Inhibition (Staph aureus 525; Table 4, 20 μg disk loading): 26 mm
